Patent publication US7265152B2 (ViroPharma Incorporated, priority 2002, dated 2007)
Where two headings read alike, the source gives them in different places.

Legend:
[1] = test system: HCV replicon (BB7 sequence) in Huh-7-Clone A cells; test: HCV replicon assay: ELISA of NS5A protein in replicon-containing cells (Inhibition of Viral RNA Replication); format: cell-based
Text: Antiviral activity of representative compounds of the invention was first evaluated in a human liver-derived cell line (Huh-7-Clone A) containing the HCV replicon (BB7 sequence) (See Lohmann et al. Science. 1999, 285:110-3; Blight K J et al., Science. 2000, 290:1972-4; Pietschmann, T. et al., J. Virol. 2001, 73:1252-1264; and Lohmann, V. et al., J. Virol. 2001, 75:1437-1449). The HCV replicon is a subgenomic viral RNA that expresses the HCV proteins required for its own replication. These proteins include non-structural proteins NS3, NS4A, NS4B, NS5A and NS5B. The replicon also contains a foreign gene encoding a drug-selectable marker (neomycin phosphotransferase) to allow for G418 (neomycin) selection of cells that contain the replicon.
An ELISA (enzyme-linked immunosorbant assay) was used to determine the effect of compounds within the scope of the invention on the amount of HCV NS5A protein produced after a 72-hour incubation of the replicon-containing cells in the presence of varying concentrations of compound. COSTAR® 96-well cell culture plates were used but other known cell culture plates may be used. After incubation, media is removed from wells and the cells are fixed to the assay plate using 0.05% glutaraldehyde. The glutaraldehyde is then washed off using phosphate-buffered saline (PBS) following a 1 hour incubation and cells are blocked for non-specific antibody binding using for example SUPERBLOCK® reagent (blocking buffer) in PBS. The blocking agent is rinsed from the cells with PBS after 1 hour at 37° C. and primary monoclonal antibody is added to each well containing compound. Primary antibody is incubated for 1 hour at 37° C. and rinsed 3 times with PBS containing 0.02% TWEEN-20™ before addition of Horseradish Peroxidase (HRP) conjugated secondary antibody. HRP is incubated for 1 hour at 37° C. and rinsed several times, first with PBS/TWEEN-20™ followed by PBS alone. To quantify peroxidase activity, 3,3′,5, 5′-tetramethylbenzidine (TMB) substrate is added to the plate and after 30 minutes, the plates are read in an ELISA plate reader at an OD of 650 nm. Compound dose response was measured in an 8-point dose curve diluted serially to determine the inhibitory concentration at 50% (EC50 value). […] Ranges of 50% effective concentrations (EC50s) for representative compounds within the scope of this invention are listed in Table 1. Preferred compounds have 50% effective concentrations at about 30 μM or less, more preferred compounds have 50% effective concentrations at about 5 μM or less, and most preferred compounds have 50% effective concentrations at about 0.5 μM or less.

HCV NS5B = molecular target: T1, HCV NS5B (Hepatitis C virus genotype 1b, UniProt Q9WMX2); test: Inhibition of viral RNA-dependent RNA polymerase (RdRp), in vitro biochemical assay; design: species or system HCV genotype 1b virus (BB7); settings: read-out: HCV pol-BB7 IC50
T1 construct: fusion protein, of which the carboxyl terminal 21 amino acids were removed to enhance its solubility; His tag (GSHHHHHH); made in house; host or cells: E. coli
Text: The HCV NS5B-directed RdRp activity was established and characterized in a standard in vitro biochemical assay using a purified HCV NS5B protein derived from the consensus sequence of a patient infected with HCV genotype 1b virus (BB7). (See Blight K J et al., Science. 2000, 290:1972-4). The NS5B consensus sequence was cloned and expressed in E. coli as a histidine tagged (GSHHHHHH) fusion protein, of which the carboxyl terminal 21 amino acids were removed to enhance its solubility.
In addition to evaluating their activity in the replicon assay, representative compounds within the scope of the present invention, as shown in examples 1-453 of Table 1, were also evaluated for antiviral activity using this assay. A measure of the inhibitory activity of compounds of the invention may be expressed as IC50 values. IC50 values represent the concentration of the compound at which 50% of the RdRp activity is inhibited. […] These low concentrations of test compounds required to achieve 50% inhibition of the RdRp activity indicate that the compounds of the invention are effective at inhibiting RNA synthesis by viral RdRp enzymes.

[2] = Hepatitis C virus, HCV replicon assay, ranges of EC50, read-out: Replicon
[3] = HCV NS5B RdRp, BB7, activity class
[4] = Hepatitis C virus, ranges of EC50 in HCV replicon assay, read-out: Replicon
[5] = HCV NS5B RdRp, BB7, class symbols A-D
[6] = Hepatitis C virus, Huh-7-Clone A, NS5A ELISA, 72-hour incubation, ranges of EC50, read-out: Replicon
[7] = purified His-tagged NS5B (BB7), carboxyl terminal 21 amino acids removed
[8] = Hepatitis C virus, HCV replicon, range of EC50, read-out: Replicon
[9] = HCV NS5B RdRp, BB7, reported as range class

## CNC(=O)c1c(-c2ccc(F)cc2)oc2cc(-c3c(COC)noc3C3CC3)c(OC)cc12 [Example 344, 6-(5-Cyclopropyl-3-methoxymethyl-isoxazol-4-yl)-2-(4-fluoro-phenyl)-5-methoxy-benzofuran-3-carboxylic acid methylamide]
[1]; [2]
  EC50: < 1 µM
HCV NS5B; [3]
  IC50: ≤ 0.5 µM

## CNC(=O)c1c(-c2ccc(F)cc2)oc2cc(N)c(OCc3ccccc3)cc12 [Example 120, 6-Amino-5-benzyloxy-2-(4-fluoro-phenyl)-benzofuran-3-carboxylic acid methylamide]
[1]; [4]
  EC50: < 10 µM
HCV NS5B; HCV NS5B RdRp, BB7 genotype 1b
  IC50: ≤ 0.5 µM

## CCNC(=O)c1c(-c2ccccc2)oc2ccc(OC)cc12 [Example 130, 5-Methoxy-2-phenyl-benzofuran-3-carboxylic acid ethylamide]
[1]; [4]
  EC50: < 10 µM
HCV NS5B; HCV NS5B RdRp, BB7 genotype 1b
  IC50: 5 to 30 µM

## CNC(=O)c1c(-c2ccc(F)cc2)oc2cc(N(C)S(C)(=O)=O)c(OCc3cccc(C(=O)OC)c3)cc12 [Example 306]
[1]; Hepatitis C virus, read-out: Replicon (μM)
  EC50: < 1 µM
HCV NS5B; [5]
  IC50: ≤ 0.5 µM

## CNC(=O)c1c(-c2ccc(F)cc2)oc2cc(C3(C)CNC(=O)O3)c(OC(C)C)cc12 (stereo not shown) [Example 381, 2-(4-Fluoro-phenyl)-5-isopropoxy-6-(5-methyl-2-oxo-oxazolidin-5-yl)-benzofuran-3-carboxylic acid methylamide]
[1]; [2]
  EC50: < 1 µM
HCV NS5B; [3]
  IC50: ≤ 0.5 µM

## CNC(=O)c1c(-c2ccc(F)cc2)oc2cc(N(CCO)S(C)(=O)=O)c(C3CC3)cc12 [Example 43, 5-Cyclopropyl-2-(4-fluoro-phenyl)-6-[(2-hydroxy-ethyl)-methanesulfonyl-amino]-benzofuran-3-carboxylic acid methylamide]
[1]; [6]
  EC50: < 1 µM
HCV NS5B; [7]
  IC50: ≤ 0.5 µM

## CNC(=O)c1c(-c2cccs2)oc2ccc(OC)cc12 [Example 88, 5-Methoxy-2-thiophen-2-yl-benzofuran-3-carboxylic acid methylamide]
[1]; [6]
  EC50: < 30 µM
HCV NS5B; [7]
  IC50: 0.5 to 5 µM

## CNC(=O)c1c(-c2ccc(F)cc2)oc2cc(-c3cc(COC)on3)c(OC(C)C)cc12 [Example 273, 2-(4-Fluoro-phenyl)-5-isopropoxy-6-(5-methoxymethyl-isoxazol-3-yl)-benzofuran-3-carboxylic acid methylamide]
[1]; [2]
  EC50: < 1 µM
HCV NS5B; [5]
  IC50: ≤ 0.5 µM

## CNC(=O)c1c(-c2ccncc2)oc2ccc(OC(C)C)cc12 [Example 27, 5-Isopropoxy-2-pyridin-4-yl-benzofuran-3-carboxylic acid methylamide]
[1]; [6]
  EC50: > 30 µM
HCV NS5B; [7]
  IC50: 5 to 30 µM

## CNC(=O)c1c(-c2ccc(F)cc2)oc2cc(-c3c(C4CC4)noc3COC)c(OC)cc12 [Example 310, 6-(3-Cyclopropyl-5-methoxymethyl-isoxazol-4-yl)-2-(4-fluoro-phenyl)-5-methoxy-benzofuran-3-carboxylic acid methylamide]
[1]; [2]
  EC50: < 1 µM
HCV NS5B; [5]
  IC50: ≤ 0.5 µM

## CNC(=O)c1c(-c2ccc(F)cc2)oc2cc(S(=O)(=O)NC3CC3)c(OC(C)C)cc12 [Example 155, 6-Cyclopropylsulfamoyl-2-(4-fluoro-phenyl)-5-isopropoxy-benzofuran-3-carboxylic acid methylamide]
[1]; [4]
  EC50: < 10 µM
HCV NS5B; HCV NS5B RdRp, BB7 genotype 1b
  IC50: ≤ 0.5 µM

## CNC(=O)c1c(-c2ccc(F)cc2)oc2cc(N(Cc3ccc(OC)cc3)S(C)(=O)=O)c(OCc3ccc(OC)cc3)cc12 [Example 31, 2-(4-Fluoro-phenyl)-6-[methanesulfonyl-(4-methoxy-benzyl)-amino]-5-(4-methoxy-benzyloxy)-benzofuran-3-carboxylic acid methylamide]
[1]; [6]
  EC50: < 1 µM
HCV NS5B; [7]
  IC50: ≤ 0.5 µM

## 4-Chloro-6-[ethyl-(2-methoxy-acetyl)-amino]-2-(4-fluoro-phenyl)-5-methoxy-benzofuran-3-carboxylic acid methylamide [Example 432]
[1]; HCV replicon assay, ranges of 50% effective concentration (EC50), read-out: Replicon
  EC50: < 10 µM
HCV NS5B; HCV NS5B polymerase, BB7 (genotype 1b), values given as range classes A-D
  IC50: 0.5 to 5 µM

## CCNc1cc2oc(-c3ccc(F)cc3)c(C(=O)NC)c2cc1O [Example 364, 6-Ethylamino-2-(4-fluoro-phenyl)-5-hydroxy-benzofuran-3-carboxylic acid methylamide]
[1]; [2]
  EC50: > 30 µM
HCV NS5B; [3]
  IC50: 0.5 to 5 µM

## CNC(=O)c1c(-c2ccc(F)cc2)oc2cc(N3CCOCC3)c(OC(C)c3nccs3)cc12 (stereo not shown) [Example 254, 2-(4-Fluoro-phenyl)-6-morpholin-4-yl-5-(1-thiazol-2-yl-ethoxy)-benzofuran-3-carboxylic acid methylamide]
[1]; [2]
  EC50: < 1 µM
HCV NS5B; [5]
  IC50: ≤ 0.5 µM

## CNC(=O)c1c(-c2ccc(F)cc2)oc2cc(N3CCOCC3)c(OCCOC)cc12 [Example 226, 2-(4-Fluoro-phenyl)-5-(2-methoxy-ethoxy)-6-morpholin-4-yl-benzofuran-3-carboxylic acid methylamide]
[1]; [8]
  EC50: < 1 µM
HCV NS5B; [9]
  IC50: ≤ 0.5 µM

## CCc1cc2c(C(=O)NC)c(-c3ccc(F)cc3)oc2cc1N(C)S(C)(=O)=O [Example 45, 5-Ethyl-2-(4-fluoro-phenyl)-6-(methanesulfonyl-methyl-amino)-benzofuran-3-carboxylic acid methylamide]
[1]; [6]
  EC50: < 1 µM
HCV NS5B; [7]
  IC50: ≤ 0.5 µM

## CNC(=O)c1c(-c2ccc(F)cc2)oc2cc(-c3ncc[nH]3)c(OC(C)C)cc12 [Example 244, 2-(4-Fluoro-phenyl)-6-(1H-imidazol-2-yl)-5-isopropoxy-benzofuran-3-carboxylic acid methylamide]
[1]; [8]
  EC50: < 1 µM
HCV NS5B; [9]
  IC50: ≤ 0.5 µM

## CNC(=O)CN(c1cc2oc(-c3ccc(F)cc3)c(C(=O)NC)c2cc1OC)S(C)(=O)=O [Example 331, 2-(4-Fluoro-phenyl)-6-(methanesulfonyl-methylcarbamoylmethyl-amino)-5-methoxy-benzofuran-3-carboxylic acid methylamide]
[1]; [2]
  EC50: < 1 µM
HCV NS5B; [3]
  IC50: ≤ 0.5 µM

## CNC(=O)c1c(-c2ccc(F)cc2)oc2cc(N(C)S(C)(=O)=O)c(OCc3cccc(C(=O)O)c3)cc12 [Example 312, 3-[2-(4-Fluoro-phenyl)-6-(methanesulfonyl-methyl-amino)-3-methylcarbamoyl-benzofuran-5-yloxymethyl]-benzoic acid]
[1]; [2]
  EC50: < 1 µM
HCV NS5B; [5]
  IC50: ≤ 0.5 µM

## CNC(=O)c1c(-c2ccc(F)cc2)oc2cc(C3CCN(S(C)(=O)=O)C3)c(OC)cc12 (stereo not shown) [Example 334, 2-(4-Fluoro-phenyl)-6-(1-methanesulfonyl-pyrrolidin-3-yl)-5-methoxy-benzofuran-3-carboxylic acid methylamide]
[1]; [2]
  EC50: < 1 µM
HCV NS5B; [3]
  IC50: ≤ 0.5 µM

## CNC(=O)c1c(-c2ccc(F)cc2)oc2cc(CNS(C)(=O)=O)c(OC(C)C)cc12 [Example 162, 2-(4-Fluoro-phenyl)-5-isopropoxy-6-(methanesulfonylamino-methyl)-benzofuran-3-carboxylic acid methylamide]
[1]; [4]
  EC50: < 10 µM
HCV NS5B; HCV NS5B RdRp, BB7 genotype 1b
  IC50: 0.5 to 5 µM

## CNC(=O)c1c(-c2ccc(F)cc2)oc2cc(-c3nnn[nH]3)c(OC(C)C)cc12 [Example 139, 2-(4-Fluoro-phenyl)-5-isopropoxy-6-(1H-tetrazol-5-yl)-benzofuran-3-carboxylic acid methylamide]
[1]; [4]
  EC50: > 30 µM
HCV NS5B; HCV NS5B RdRp, BB7 genotype 1b
  IC50: 0.5 to 5 µM
